Results taken from US9532983B2, “Benzofuran compounds, compositions, kits and/or methods thereof” (Savannah State University, priority 2013, dated 2017).
Entries after “also recorded” stand apart in the source; their conditions may differ. Where two headings read alike, the source gives them in different places.

Key:
5-HT2A = molecular target: T1, 5-HT2A (Homo sapiens, UniProt P28223); assay: Primary binding assay at non-sigma receptors: 5-HT2A; settings: 10 μM (final) assay concentration
T1 construct: expressed in transfected cells
T1 sequence (P28223 whole entry): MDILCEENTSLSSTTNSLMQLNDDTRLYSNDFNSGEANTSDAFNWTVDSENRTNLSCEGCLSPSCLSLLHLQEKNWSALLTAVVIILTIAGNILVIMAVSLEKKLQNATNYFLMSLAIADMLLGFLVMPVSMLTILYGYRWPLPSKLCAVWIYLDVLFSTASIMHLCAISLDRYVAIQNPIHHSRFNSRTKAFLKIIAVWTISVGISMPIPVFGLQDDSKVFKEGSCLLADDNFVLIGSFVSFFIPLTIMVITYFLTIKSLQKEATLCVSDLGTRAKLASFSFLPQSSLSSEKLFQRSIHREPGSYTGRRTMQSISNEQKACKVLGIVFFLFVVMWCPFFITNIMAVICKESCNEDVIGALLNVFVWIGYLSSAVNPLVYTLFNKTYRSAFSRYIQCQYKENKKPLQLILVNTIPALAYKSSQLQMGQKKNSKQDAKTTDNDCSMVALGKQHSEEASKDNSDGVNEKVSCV
Protocol: (§1) Initial primary binding screening assays were performed using a 50 μM (initial)−10 μM (final) assay concentration of reference and test compounds.

5-HT2B = molecular target: T2, 5-HT2B (Homo sapiens, UniProt P41595); assay: Primary binding assay at non-sigma receptors: 5-HT2B; settings: read-out: % Inhibition 5-HT2B
T2 construct: expressed in transfected cells
T2 sequence (P41595 whole entry, species assumed): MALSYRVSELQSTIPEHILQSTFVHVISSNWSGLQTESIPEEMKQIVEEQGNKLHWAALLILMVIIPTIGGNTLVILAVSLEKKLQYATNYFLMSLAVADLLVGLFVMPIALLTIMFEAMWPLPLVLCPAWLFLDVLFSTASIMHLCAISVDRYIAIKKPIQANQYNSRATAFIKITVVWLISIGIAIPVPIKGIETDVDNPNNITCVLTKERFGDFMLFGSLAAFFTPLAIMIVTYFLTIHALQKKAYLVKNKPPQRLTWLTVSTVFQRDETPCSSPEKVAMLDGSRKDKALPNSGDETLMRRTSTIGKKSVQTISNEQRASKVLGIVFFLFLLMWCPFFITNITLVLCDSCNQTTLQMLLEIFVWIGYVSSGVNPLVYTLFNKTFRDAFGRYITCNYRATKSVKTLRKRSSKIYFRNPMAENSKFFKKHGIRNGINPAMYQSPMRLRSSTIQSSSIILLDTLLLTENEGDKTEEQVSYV
Protocol: as §1

5HT3 = molecular target: T3, 5HT3 (Homo sapiens, UniProt P46098); assay: Primary binding assay at non-sigma receptors: 5HT3; settings: 10 μM (final) assay concentration
T3 construct: expressed in transfected cells
T3 sequence (P46098 24-478): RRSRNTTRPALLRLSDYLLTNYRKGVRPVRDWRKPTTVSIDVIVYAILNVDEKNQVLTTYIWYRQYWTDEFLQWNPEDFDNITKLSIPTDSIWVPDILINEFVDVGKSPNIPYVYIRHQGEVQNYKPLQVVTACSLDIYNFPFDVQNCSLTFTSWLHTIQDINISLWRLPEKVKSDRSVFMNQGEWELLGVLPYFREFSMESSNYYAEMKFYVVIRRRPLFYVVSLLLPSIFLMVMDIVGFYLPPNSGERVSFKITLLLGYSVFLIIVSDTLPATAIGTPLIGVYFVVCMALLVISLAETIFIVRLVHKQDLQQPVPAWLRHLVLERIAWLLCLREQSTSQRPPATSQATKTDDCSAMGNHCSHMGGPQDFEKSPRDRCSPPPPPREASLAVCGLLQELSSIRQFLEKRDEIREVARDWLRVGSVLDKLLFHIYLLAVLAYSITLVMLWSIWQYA
Protocol: as §1

M4 = molecular target: T4, M4 (Homo sapiens, UniProt P08173); assay: Primary binding assay at non-sigma receptors: M4; settings: 10 μM (final) assay concentration
T4 construct: expressed in transfected cells
T4 sequence (P08173 1-479): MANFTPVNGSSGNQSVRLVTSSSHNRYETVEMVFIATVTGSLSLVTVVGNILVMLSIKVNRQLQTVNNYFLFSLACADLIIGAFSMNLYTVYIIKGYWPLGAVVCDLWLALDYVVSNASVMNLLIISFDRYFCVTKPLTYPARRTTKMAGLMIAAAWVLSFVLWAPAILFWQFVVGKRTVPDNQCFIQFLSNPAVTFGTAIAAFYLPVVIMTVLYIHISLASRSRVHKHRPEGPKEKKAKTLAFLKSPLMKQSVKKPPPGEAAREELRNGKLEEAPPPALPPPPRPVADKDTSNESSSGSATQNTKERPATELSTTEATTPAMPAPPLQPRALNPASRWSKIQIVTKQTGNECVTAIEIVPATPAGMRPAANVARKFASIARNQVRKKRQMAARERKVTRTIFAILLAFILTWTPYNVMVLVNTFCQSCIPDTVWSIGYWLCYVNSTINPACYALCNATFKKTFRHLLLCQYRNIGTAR
Protocol: as §1

σ2 receptor = molecular target: T5, σ2 receptor (Rattus norvegicus, UniProt Q5U3Y7); assay: Secondary binding assay, Ki determination at σ2 receptor ([3H]DTG, PC12 cell homogenates); settings: read-out: σ-2 (Ki)
T5 construct: PC12 cell homogenates for σ2 receptors were added to the wells; endogenous in cells; host or cells: PC12 cell homogenate
T5 sequence (Q5U3Y7 1-176): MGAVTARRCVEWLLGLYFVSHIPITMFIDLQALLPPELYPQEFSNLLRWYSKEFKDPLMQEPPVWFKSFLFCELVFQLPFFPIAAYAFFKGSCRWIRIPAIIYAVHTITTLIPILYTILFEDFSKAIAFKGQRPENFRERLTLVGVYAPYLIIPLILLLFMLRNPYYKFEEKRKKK
Protocol: Secondary binding assays, Ki determinations were performed by measuring the inhibition of radioligand binding by various concentrations of test and reference compound. […] [^3H]Pentazocine (3 nM) was used as the radioligand for σ1 receptors and [^3H]Ditolyglguanidine (DTG) (1 nM) as the radioligand for σ2 receptors. Aliquots (50 μl) of radioligand were dispensed into the wells of a 96-well plate containing 100 μl of Standard Binding Buffer. Then, duplicate 50-μl aliquots of the test and reference compound dilutions were added. Finally, either crude membrane fractions prepared from rat brain homogenate for σ1 receptors or PC12 cell homogenates for σ2 receptors were added to the wells, and the plates shielded from light to prevent photolysis of light sensitive ligands.
For σ1 receptors, the reactions were incubated at 37° C. for 2.5 h, and for σ2 receptors, the reactions were incubated at room temperature for 2 h. Labeled receptors were harvested by rapid filtration on to Whatman GF/B glass filters pre-soaked with 0.3% polyethyleneimine using 96-well Brandel harvester. Four rapid 500 μl washes are performed with chilled Standard Binding buffer to reduce non-specific binding. Filters were placed in 6-ml scintillation tubes and allowed to dry overnight. EcoScint scintiallation cocktail (National Diagnostics) was added to each tube prior to counting. […] The filter mats were dried, the scintillate melted onto the filters and the radioactivity counted in a Microbeta scintillation counter.
Raw data (dpm) representing total radioligand binding (i.e., specific+nonspecific binding) were plotted as a function of the logarithm of the molar concentration of the competitor (i.e., test or reference compound).

MA-10 cells = assay: Cell viability assay (MTT) in MA-10 cells; format: cell-based, mouse; settings: 24 h, varying concentrations
Protocol: (§2) Mouse Leydig cell line (MA-10) was grown in Waymouth media containing 15% horse serum, 5% fetal bovine serum, and 1× gentamycin, which was replaced with […] G418 (geneticin) for VDAC1 knockdown (ΔVDAC1) MA10 cells. Cells were maintained at 37° C. in a humidified incubator under 5% CO2. To isolate mitochondria, cells were removed from tissue culture plates by gentle scrapping in phosphate-buffered saline at room temperature, incubated in hypotonic buffer (10 mM HEPES, pH 7.4) for 30 to 40 min, and mitochondria were isolated following readily available procedures. The mitochondrial preparation was verified by Western blotting with the cytochrome P450 SCC enzyme (Corgen, Tapai, Taiwan) and calnexin antibodies (Santa Cruz Biotechnology, Inc., Santa Cruz, Calif.).
Stock solutions (1 mM) of the ligands were made in 1× phosphate buffered saline, filter-sterilized, and then further diluted up to 1 μM with serum-free medium. Cell viability was determined by the 3-[4,5-dimethylthiazol-2yl]-2,5-diphenyltetrazolium bromide assay using a commercially available kit following the manufacturer's instructions (Promega, Madison, Wis.). MA-10 cells were plated in a 96-well plate at an initial density of 4×10^3 cells per well for 24 h at 37° C. in 5% CO2 atm. After 24 h of serum starvation, the culture media were changed to serum-free media containing 1, 5, 10, 50, and 100 nM concentration for each KSCM ligand. Next, the cells were incubated for 2 to 3 h with 0.5 mg/ml of 3-[4,5-dimethylthiazol-2yl]-2,5-diphenyltetrazolium bromide reagent and lysed with dimethyl sulfoxide, and the absorbance was measured at 550 nm (FlexStation 3; Molecular Devices, Sunnyvale, Calif.).

StAR = assay: Western blot, expression of StAR in MA-10 cells; format: cell-based, mouse
Protocol: as §2
Protein (12.5 μg) was separated by 15% SDS-polyacrylamide gel electrophoresis and transferred to a polyvinylidinedifluoride membrane (Millipore Corporation, Billerica, Mass.). The membrane was blocked with 3% nonfat dry milk for 45 min, probed overnight with the primary antibodies, and then incubated with […] goat anti-rabbit or anti mouse IgG (Thermo Fisher Scientific, Waltham, Mass.). Signals were developed with chemiluminescent reagent (Thermo Fisher Scientific). For loading control of all Western blots, the membrane was stained with β-actin antibody, which was previously independently stained with StAR or 3-β-hydroxysteroid dehydrogenase (3βHSD2) or VDAC1 and VDAC2 antiserum. The band intensity was determined by using Image Quant 5.2 (Phosphorimager; GE Healthcare, Chalfont St. Giles, Buckinghamshire, UK). Densitometric calculation may reflect the ratio of σ1 or VDAC2 and β-actin following an established procedure that is readily available.
The role of KSCM ligands on the expression of StAR in MA-10 cells was evaluated. In all the cases studied, both the 37-kDa unimported and the 30-kDa mitochondrial-imported, mature protein, were observed but not the 32-kDa transient intermediate protein. The same membrane was probed first with StAR antibody and then with β-actin antibody independently. […] Coimmunoprecipitation experiments were performed to determine whether there was a direct interaction between σ1 receptor and StAR or VDAC2. […] StAR is a 37-kDa protein and thus it is higher than the 28-kDa σ1 (FIG. 5A), confirming that StAR interaction with the σ1 receptor.

Row | Structure (SMILES) | inhibition at 10 µM (5-HT2A) [%] | inhibition at 10 µM (5-HT2B) [%] | inhibition at 10 µM (5HT3) [%] | inhibition at 10 µM (M4) [%] | Ki (σ2 receptor) [nM] | toxicity / effect on cell viability compared among the ligands (in words) (MA-10 cells) | expression of imported 30-kDa StAR (in words) (StAR) | expression of unimported 37-kDa StAR (in words) (StAR) | inhibition at 10 µM (5-HT2B; primary binding assay, 10 μM (final) assay concentration) [%]
1 | COc1ccc2c(C)c(C(=O)N(CCCN3CCCCC3)c3ccccc3)oc2c1 [KSCM-11, 6-Methoxy-3-methyl-N-phenyl-N-(3-(piperidin-1-yl)propyl)benzofuran-2-carboxamide] | 61.2 | 93.9 | 7.3 | 68.4 | 41 | greater cytotoxic effect than KSCM-1 | unchanged | not and unchanged | –
2 | COc1cc2oc(C(=O)N(CCCN3CCCCC3)c3ccccc3)c(C)c2cc1OC [KSCM-1, 5,6-Dimethoxy-3-methyl-N-phenyl-N-(3-(piperidin-1-yl)propyl)benzofuran-2-carboxamide] | 76.6 | 43.8 | 64.2 | 54.4 | 528 | – | unaffected | increased (and/or stabilized); also recorded: stabilizes the expression of unimported StAR | –
3 | Cc1c(C(=O)N(CCCN2CCCCC2)c2ccccc2)oc2ccccc12 [KSCM-5, 3-Methyl-N-phenyl-N-(3-(piperidin-1-yl)propyl)benzofuran-2-carboxamide] | 18.1 | – | 2.9 | 43.1 | 16 | most potent decrease in cell viability; also recorded: greatest toxicity | unchanged | not and unchanged | 69.2
